Data on 22 compounds can be found in patent US20240398828A1, “HETERO-ATOM CONTAINING COMPOUNDS AND USES THEREOF” (Kumquat Biosciences Inc., priority 2021, published 2024).

Experiment [1] deals with T1, PTPN2 (i.e., TC-PTP) (Homo sapiens, UniProt P17706).
T1 sequence (P17706 1-415): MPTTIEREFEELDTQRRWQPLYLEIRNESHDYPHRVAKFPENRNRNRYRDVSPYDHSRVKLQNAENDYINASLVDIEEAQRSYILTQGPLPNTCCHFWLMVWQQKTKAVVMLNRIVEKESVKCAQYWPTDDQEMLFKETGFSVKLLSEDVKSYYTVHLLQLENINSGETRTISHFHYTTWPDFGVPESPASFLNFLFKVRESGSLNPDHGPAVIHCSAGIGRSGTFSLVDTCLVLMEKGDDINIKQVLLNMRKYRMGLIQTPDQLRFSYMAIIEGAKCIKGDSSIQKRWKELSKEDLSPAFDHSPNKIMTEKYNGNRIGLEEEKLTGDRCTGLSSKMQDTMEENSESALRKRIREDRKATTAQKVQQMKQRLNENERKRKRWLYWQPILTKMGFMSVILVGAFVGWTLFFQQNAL
The experiment is described as follows: Phosphatase activity assay (DiFMUP substrate), PTPN2. As to conditions: compounds binned ≤1 uM or >1 uM. Type of experiment: biochemical. An outline of the steps:
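Read-out is continuous fluorescence of DiFMU (360 nm excitation, 450 nm emission) over about 15-30 minutes, with DiFMUP substrate at the enzyme's independently determined Km (PTPN2 approx. 45 μM final). Buffer: 50 mM HEPES pH 7.5, 150 mM NaCl, 0.5 mM EDTA, 1 mM DTT, 0.001% Tween-20, room temperature; initial rates versus 10-point dilution fitted for IC50, at least duplicate.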

Experiment [2] has as its target T2, PTPN1 (i.e., PTP1B) (Homo sapiens, UniProt P18031).
T2 sequence (P18031 1-435): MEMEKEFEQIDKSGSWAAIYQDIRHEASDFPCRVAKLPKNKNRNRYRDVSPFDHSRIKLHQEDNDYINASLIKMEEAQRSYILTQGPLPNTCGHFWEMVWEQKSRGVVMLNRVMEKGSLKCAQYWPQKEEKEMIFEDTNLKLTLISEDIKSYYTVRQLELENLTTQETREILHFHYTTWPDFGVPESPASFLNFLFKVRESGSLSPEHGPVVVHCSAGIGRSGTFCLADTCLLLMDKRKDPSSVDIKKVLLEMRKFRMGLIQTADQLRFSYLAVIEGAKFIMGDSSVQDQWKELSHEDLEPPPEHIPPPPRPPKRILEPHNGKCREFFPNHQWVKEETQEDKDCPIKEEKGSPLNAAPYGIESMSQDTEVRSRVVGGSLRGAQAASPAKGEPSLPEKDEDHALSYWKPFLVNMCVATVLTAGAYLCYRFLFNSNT
Description: Phosphatase activity assay (DiFMUP substrate), PTP1B. The format is biochemical. The conditions noted are these: compounds binned ≤1 uM or >1 uM. An outline of the steps: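 Enzyme (e.g. PTPN2 0.025 ng/ul) mixed about 2 min with compound at 10 serial concentrations in 50 mM HEPES pH 7.5, 150 mM NaCl, 0.5 mM EDTA, 1 mM DTT, 0.001% Tween-20 at room temperature. DiFMUP added at each enzyme's Km (about 45 μM for PTPN2). DiFMU fluorescence (ex 360/em 450 nm) followed 15-30 min; IC50 from 4-parameter fit of rates.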

Turning to `CC1CC(c2ccc(O)c(N3CC(=O)NS3(=O)=O)c2F)CN1` (centres unmarked) [Compound 407, 5-(2-fluoro-6-hydroxy-3-(5-methylpyrrolidin-3-yl)phenyl)-1,2,5-thiadiazolidin-3-one 1,1-dioxide], the IC50 in experiment [1] and in experiment [2] was at most 1 µM in each case.

Regarding `O=C1CN(c2c(O)ccc(-c3cc(C4CC4C(F)F)n[nH]3)c2F)S(=O)(=O)N1` (centres unmarked) [Compound 492, 5-(3-(3-(2-(difluoromethyl)cyclopropyl)-1H-pyrazol-5-yl)-2-fluoro-6-hydroxyphenyl)-1,2,5-thiadiazolidin-3-one 1,1-dioxide], the IC50 in experiment [1] and in experiment [2] was at most 1 µM each time.

Turning to `COC1CCN(c2cc(-c3ccc(O)c(N4CC(=O)NS4(=O)=O)c3F)[nH]n2)C1` (centres unmarked) [Compound 388, 5-(2-fluoro-6-hydroxy-3-(3-(3-methoxypyrrolidin-1-yl)-1H-pyrazol-5-yl)phenyl)-1,2,5-thiadiazolidin-3-one 1,1-dioxide], the IC50 in experiment [1] and in experiment [2] was at most 1 µM throughout.

For `Cc1cc(-c2cnn(CCC(C)C)c2)cc(N2CC(=O)NS2(=O)=O)c1O` [Compound 145, 5-(2-hydroxy-5-(1-isopentyl-1H-pyrazol-4-yl)-3-methylphenyl)-1,2,5-thiadiazolidin-3-one 1,1-dioxide], the IC50 in experiment [1] and in experiment [2] was above 1 µM each time.

As for `CC(C)CCn1cc(-c2ccc(O)c(N3CC(=O)NS3(=O)=O)n2)cn1` [Compound 134, 5-(3-hydroxy-6-(1-isopentyl-1H-pyrazol-4-yl)pyridin-2-yl)-1,2,5-thiadiazolidin-3-one 1,1-dioxide], the IC50 in experiment [1] and in experiment [2] was above 1 µM throughout.

Take `Cc1ccc(-c2ccc(O)c(N3CC(=O)NS3(=O)=O)c2F)s1` [Compound 128, 5-(2-fluoro-6-hydroxy-3-(5-methylthiophen-2-yl)phenyl)-1,2,5-thiadiazolidin-3-one 1,1-dioxide]: the IC50 in experiment [1] and in experiment [2] was at most 1 µM each time.

`O=C1CN(c2c(O)ccc(-c3cc(C4CCCCC4)n[nH]3)c2F)S(=O)(=O)N1` [Compound 371, 5-(3-(3-cyclohexyl-1H-pyrazol-5-yl)-2-fluoro-6-hydroxyphenyl)-1,2,5-thiadiazolidin-3-one 1,1-dioxide]: the concentration for half-maximal inhibition (IC50) in experiment [1] and in experiment [2] was at most 1 µM throughout.

With `CC(C)CCOC1CCCN(c2cc(O)c(N3CC(=O)NS3(=O)=O)c(F)c2)C1` (centres unmarked) [Compound 201, 5-(2-fluoro-6-hydroxy-4-(3-(isopentyloxy)piperidin-1-yl)phenyl)-1,2,5-thiadiazolidin-3-one 1,1-dioxide], the IC50 in experiment [1] and in experiment [2] was at most 1 µM throughout.

Consider `O=C1CN(c2c(O)ccc(-c3cc(N4CCCCC4)n[nH]3)c2F)S(=O)(=O)N1` [Compound 332, 5-(2-fluoro-6-hydroxy-3-(3-(piperidin-1-yl)-1H-pyrazol-5-yl)phenyl)-1,2,5-thiadiazolidin-3-one 1,1-dioxide], for which the IC50 in experiment [1] and in experiment [2] was at most 1 µM in each case.

With `CCn1nc(-c2ccc(O)c(N3CC(=O)NS3(=O)=O)c2F)cc1C1CC1` [Compound 331, 5-(3-(5-cyclopropyl-1-ethyl-1H-pyrazol-3-yl)-2-fluoro-6-hydroxyphenyl)-1,2,5-thiadiazolidin-3-one 1,1-dioxide], the IC50 in experiment [1] and in experiment [2] was at most 1 µM throughout.

Regarding `CC(C)CCS(=O)(=O)N1CC=C(c2ccc(O)c(N3CC(=O)NS3(=O)=O)c2F)C1` [Compound 338, 5-(2-fluoro-6-hydroxy-3-(1-(isopentylsulfonyl)-2,5-dihydro-1H-pyrrol-3-yl)phenyl)-1,2,5-thiadiazolidin-3-one 1,1-dioxide], the IC50 in experiment [1] and in experiment [2] was at most 1 µM each time.

For the compound `O=C1CN(c2c(O)ccc(-c3cc(C4CC4)n(C4CC4)n3)c2F)S(=O)(=O)N1` [Compound 429, 5-(3-(1,5-dicyclopropyl-1H-pyrazol-3-yl)-2-fluoro-6-hydroxyphenyl)-1,2,5-thiadiazolidin-3-one 1,1-dioxide], the IC50 in experiment [1] and in experiment [2] was at most 1 µM in each case.

`COc1ccc(-n2cnc(-c3ccc(O)c(N4CC(=O)NS4(=O)=O)c3F)c2)cc1` [Compound 348, 5-(2-fluoro-6-hydroxy-3-(1-(4-methoxyphenyl)-1H-imidazol-4-yl)phenyl)-1,2,5-thiadiazolidin-3-one 1,1-dioxide]: the IC50 in experiment [1] and in experiment [2] was at most 1 µM each time.

In the case of `O=C1CN(c2c(O)ccc(-c3cnn(C4CCOCC4)c3)c2F)S(=O)(=O)N1` [Compound 214, 5-(2-fluoro-6-hydroxy-3-(1-(tetrahydro-2H-pyran-4-yl)-1H-pyrazol-4-yl)phenyl)-1,2,5-thiadiazolidin-3-one 1,1-dioxide], the IC50 in experiment [1] and in experiment [2] was at most 1 µM in each case.

Regarding `O=C1CN(c2c(O)ccc(-c3ccc4ncccc4c3)c2F)S(=O)(=O)N1` [Compound 150, 5-(2-fluoro-6-hydroxy-3-(quinolin-6-yl)phenyl)-1,2,5-thiadiazolidin-3-one 1,1-dioxide], the IC50 in experiment [1] and in experiment [2] was at most 1 µM in each case.

As for `C=CCCC1C=C(c2ccc(O)c(N3CC(=O)NS3(=O)=O)c2F)CN1` (centres unmarked) [Compound 471, 5-(3-(5-(but-3-en-1-yl)-2,5-dihydro-1H-pyrrol-3-yl)-2-fluoro-6-hydroxyphenyl)-1,2,5-thiadiazolidin-3-one 1,1-dioxide], the IC50 in experiment [1] and in experiment [2] was at most 1 µM throughout.

With `O=C1CN(c2c(O)ccc(-c3cc(CCC(F)(F)F)n[nH]3)c2F)S(=O)(=O)N1` [Compound 415, 5-(2-fluoro-6-hydroxy-3-(3-(3,3,3-trifluoropropyl)-1H-pyrazol-5-yl)phenyl)-1,2,5-thiadiazolidin-3-one 1,1-dioxide], the 50% inhibitory concentration (IC50) in experiment [1] and in experiment [2] was at most 1 µM in each case.

Consider `Cc1ccc(-c2ccc(O)c(N3CC(=O)NS3(=O)=O)c2F)cn1` [Compound 180, 5-(2-fluoro-6-hydroxy-3-(6-methylpyridin-3-yl)phenyl)-1,2,5-thiadiazolidin-3-one 1,1-dioxide], for which the IC50 in experiment [1] and in experiment [2] was at most 1 µM each time.

Consider `Cc1nn(C)cc1-c1ccc(O)c(N2CC(=O)NS2(=O)=O)c1F` [Compound 142, 5-(3-(1,3-dimethyl-1H-pyrazol-4-yl)-2-fluoro-6-hydroxyphenyl)-1,2,5-thiadiazolidin-3-one 1,1-dioxide], for which the IC50 in experiment [1] and in experiment [2] was at most 1 µM each time.

As to `O=C1CN(c2c(O)ccc(-c3n[nH]c4ccccc34)c2F)S(=O)(=O)N1` [Compound 168, 5-(2-fluoro-6-hydroxy-3-(1H-indazol-3-yl)phenyl)-1,2,5-thiadiazolidin-3-one 1,1-dioxide], the IC50 in experiment [1] and in experiment [2] was above 1 µM in each case.

On to `CCCCNc1ccc(-c2ccc(O)c(N3CC(=O)NS3(=O)=O)c2F)cn1` [Compound 215, 5-(3-(6-(butylamino)pyridin-3-yl)-2-fluoro-6-hydroxyphenyl)-1,2,5-thiadiazolidin-3-one 1,1-dioxide], for which the IC50 in experiment [1] and in experiment [2] was at most 1 µM throughout.

For the compound `O=C1CN(c2c(O)ccc(-c3cnn(C4CC4)c3)c2Cl)S(=O)(=O)N1` [Compound 260, 5-(2-chloro-3-(1-cyclopropyl-1H-pyrazol-4-yl)-6-hydroxyphenyl)-1,2,5-thiadiazolidin-3-one 1,1-dioxide], the IC50 in experiment [1] and in experiment [2] was at most 1 µM each time.

As a reminder, the IC50 is the concentration at which inhibition is half-maximal.
